Earlier results on one compound are cited in patent US20210145841A1, “ENHANCEMENT OF DELIVERY OF LIPOPHILIC ACTIVE AGENTS ACROSS THE BLOOD-BRAIN BARRIER AND METHODS FOR TREATING CENTRAL NERVOUS SYSTEM DISORDERS” (POVIVA CORP., priority 2018, published 2021).

The conditions of the data set: in vivo.

For `CC1=CC[C@H]2C[C@@H]1C2(C)C` [α-Pinene, (1S,5S)-2,6,6-Trimethylbicyclo[3.1.1]hept-2-ene], the human pulmonary uptake is given as 60%.
